Values quoted from earlier work, collected in PMC9620260 (Journal of Medicinal Chemistry, 2022).
Where two headings read alike, the source gives them in different places.

Legend:
[1] = system: S. pneumoniae sialidases
[2] = system: influenza viral NA
[3] = system: bacterial sialidase
[4] = system: V. cholerae sialidase
[5] = system: C. perfringens sialidase (CpNanI)
[6] = system: SpNanA
[7] = system: Neu1; conditions: selective for Neu1 over the other isoenzymes
[8] = target: T. cruzi trans-sialidase (TcTS)
[9] = system: sialidases
[10] = system: T. cruzi
[11] = not given; remark: listed apart in the source
[12] = system: sialyltransferases

SMILES: COc1cc2oc(-c3ccc(O)cc3O)c(CC=C(C)C)c(=O)c2c(O)c1/C=C/C(C)C [artocarpin]
- inhibitory activity against S. pneumoniae sialidases [1]: inhibitory activity
- inhibitory activity against influenza sialidase [2]: inhibitory activity

SMILES: CC(=O)NC1C(O)C(F)C(F)(C(=O)O)OC1C(O)C(O)CN=[N+]=[N-] (stereo not shown) [9-azido-modified 2,3-diF-Neu5Ac]
- inhibitory activity against bacterial sialidases ([3]; effect of modification of 2,3-difluoro-Sia): increased inhibitory activity

SMILES: COc1ccc(C=CC(=O)C=C(O)C=Cc2ccc(O)c(O)c2)cc1O [7-(3,4-dihydroxyphenyl)-5-hydroxy-1-(3-hydroxy-4-methoxyphenyl) hepta-1,4,6-trien-3-one]
- inhibition of V. cholerae sialidase [4]: inhibit
- inhibition of C. perfringens sialidase [5]: inhibit
- inhibition of S. pneumoniae NanA [6]: inhibit

SMILES: COc1cc(C)c(C(=O)Oc2cc(C)c(C(=O)O)c(O)c2)c(O)c1 [Evernic acid]
- inhibition against bacterial sialidase [3]: dose-dependent inhibition

SMILES: CCCCC(=O)NC[C@@H](O)[C@@H](O)[C@@H]1OC(C(=O)O)=C[C@H](O)[C@H]1NC(C)=O [C-9 Pentylamido derivative of DANA]
- IC50 against Neu1 [7]: micromolar

SMILES: O=C(O)c1cc(O)c2c(c1)C(=O)c1cc(O)c(Cl)c(O)c1C2=O [6-chloro-9,10-dihydro-4,5,7-trihydroxy-9,10-dioxo-2-anthracenecarboxylic acid]
- IC50 ([8]; specific TcTS inhibitor): 0.58 µM

SMILES: CCOC(=O)C1=C[C@@H](OC(CC)CC)[C@H](NC(C)=O)[C@@H](N)C1 [oseltamivir]
- side effects: neuropsychiatric side effects

SMILES: CC(=O)N[C@H]1[C@H]([C@H](O)[C@H](O)CO)OC(O)(C(=O)O)C[C@@H]1O (stereo partly shown) [Neu5Ac, N-acetylneuraminic acid]
- inhibition of sialidases [9]: weak inhibitor

SMILES: CC(=O)N[C@H]1[C@H]([C@H](O)[C@H](O)CO)O[C@@](Oc2ccc([N+](=O)[O-])cc2C(F)F)(C(=O)O)C[C@@H]1O [2-difluoromethyl-4-nitrophenyl glycoside of αNeu5Ac]
- T. cruzi infection of mammalian cells [10]: prevents T. cruzi infection of mammalian cells
- IC50 ([8]; irreversible inhibitor of trans-sialidase): 600 µM

SMILES: COC(=O)C1(OC(C)=O)OC([C@H](OC(C)=O)[C@@H](COC(C)=O)OC(C)=O)C(NC(C)=O)C(OC(C)=O)C1F (stereo partly shown) [P-3Fax-Neu5Ac]
- nephrotoxicity [11]: well-known nephrotoxicity
- inhibition of the sialyltransferases [12]: cell-permeable specific inhibitor

SMILES: CC(=O)N[C@H]1[C@H]([C@H](O)[C@H](O)CO)OC(C(=O)O)=C[C@@H]1O [DANA, 2-deoxy-2,3-dehydro-N-acetylneuraminic acid]
- IC50 against TcTS [8]: several hundred
- Ki values ([2]; influenza viral neuraminidases): micromolar range

SMILES: O=C(CCc1ccccc1)C[C@@H]1C[C@@H](c2ccccc2)c2c(cc(/C=C/c3ccccc3)oc2=O)O1 [katsumadain A]
- inhibitory activity against S. pneumoniae sialidases [1]: inhibitory activity
- inhibitory activity against influenza sialidase [2]: inhibitory activity
